Source: paper PMC2882366 (PLoS ONE, 2010)

What was measured:
[1] = test system: p-S6RP in canine osterosarcoma cell lines (BM, SK); experiment: Immunoblot of p-S6RP in canine osteosarcoma cell lines; type: cell-based; settings: 100 nM, BM and SK cells
Experimental: (§1) Protein concentration of lysates was determined by BCA protein assay (Pierce, Thermo Fischer Scientific, Rockford, IL). Lysates were separated with Invitrogen NuPage gels (Invitrogen, Carlsbad, CA) and transferred to nitrocellulose membranes. The blots were probed for the proteins of interest with specific antibodies followed by a secondary antibody (Cell Signaling Technology, Inc, Danvers, MA) and then incubated with SuperSignal chemiluminescence substrate (Pierce). The blots were then exposed to Kodak Biomax Light Film (Kodak, Rochester, NY). The antibodies against AKT and p-AKT (Ser473), S6RP and p-S6RP, and actin were obtained from Cell Signaling.
(§2) Controls were Jurkat cells treated with LY (−) or PMA (+). B. Quantitative determination of total and p-S6RP (S240/244) with electrochemiluminescence (ECL) assay. C. […] (1.56 MB TIF) Click here for additional data file.

[2] = test system: p-S6RP in human breast cancer cell lines (MCF7 and MDA231); experiment: Immunoblot of p-S6RP in human breast cancer cell lines; type: cell-based; settings: 100 nM, MCF7 and MDA231 cells
Experimental: as §1, §2

[3] = test system: dogs with appendicular osteosarcoma
From the text: All dogs underwent a pre-treatment tumor biopsy and collection of PBMC at study initiation. […] The defined study period was 15 days. Safety, tumoral pharmacodynamic (PD) modulation, correlation to surrogates (PBMC), and the relationship between PK and PD were study endpoints.
Escalation through 5 planned dose cohorts was based on assessment of dose limiting toxicities (DLT) using VCOG modified-CTCAE convention [32]. Age (range, 3.7–11.9 years; median 7.9 years), sex (14 spayed females, 8 castrated males) and breed (5 mixed-breed and 17 purebred) were recorded for all dogs enrolled on study ( Table 3 : Patient Characteristics).
Dogs underwent a complete physical examination, CBC, serum biochemical profile, UA and pre-treatment biopsies at Day 0. Vital signs (core temperature, pulse, respiratory rate) were recorded at baseline. […] Owners completed an Owner Assessment Form on Days 0, 8 and 15 to record impressions of their dog's clinical status throughout the study period.
Blood samples were collected to define hematologic and biochemical DLT. CBC, biochemical profile and urinalysis were evaluated at Day 0, and then weekly (pre-operatively at Day 8 and Day 15) to define safety. The Veterinary Cooperative Oncology Group Common Toxicity Criteria for Adverse Events (VCOG-CTCAE) was used to determine DLT, defined as any grade 3 or grade 4 (hematologic or non-hematologic) events [32]. […] MTD was defined as one dose level below the maximum achieved in dose-escalation. Any and all adverse events were collected within the electronic database reporting system (C3D) following strict one-week reporting timelines.

[4] = test system: p/t-S6RP in PBMC; experiment: PBMC p-S6RP/t-S6RP by electrochemiluminescence; type: in vivo, dog
Experimental: Modulation of mTOR pathway targets were evaluated in matched tumor ( Figure 4A .) and PBMC samples ( Figure 4B .) to compare p-S6RP and p-AKT expression pre- and post-rapamycin treatment. ECL techniques were utilized to accurately quantify the relative percentage of phospho-protein over total protein (p/t) in tumor and PBMC. Quality control assessments defined 10 tumor and 8 PBMC samples eligible for evaluation. […] Modulation of mTOR pathway targets in PBMC and tumor samples were concordant.
PBMCS were collected in two (2) 8 ml BD CPT vacutainers (Becton Dickinson, Franklin Lakes, NJ) with sodium heparin, each filled completely with whole blood. […]
The samples (cell lines, tumor, PBMC) used for ECL were prepared based on the Meso-Scale Discovery (MSD) lysate preparation protocol (Meso-Scale Discovery, Gaithersburg, MD) using complete lysis buffer with protease and phosphatase inhibitors. For quantitative analysis of phospho-proteins, duplex t/p-AKT (S473) and duplex t/p-S6RP (S240/S244) were obtained from MSD, used following manufacturer's instructions, and read with Sector Imager 2400 (MSD). […] Out of the 19 paired tumor biopsies analyzed, 9 were excluded due to values below the detection limit, of which 8 were from one trial site. […] PBMC from 8 patients were analyzed for p-S6RP/t-S6RP and all data was shown.

[5] = test system: p/t-S6RP (S240/244) in canine osteosarcoma cell lines (BW and SK); experiment: ECL quantification of p/t-S6RP in canine osteosarcoma cell lines; type: cell-based
Experimental: as §1
The samples (cell lines, tumor, PBMC) used for ECL were prepared based on the Meso-Scale Discovery (MSD) lysate preparation protocol (Meso-Scale Discovery, Gaithersburg, MD) using complete lysis buffer with protease and phosphatase inhibitors. For quantitative analysis of phospho-proteins, duplex t/p-AKT (S473) and duplex t/p-S6RP (S240/S244) were obtained from MSD, used following manufacturer's instructions, and read with Sector Imager 2400 (MSD). A total of 25 ug of lysates were used per well for the duplex assays. Out of the 19 paired tumor biopsies analyzed, 9 were excluded due to values below the detection limit, of which 8 were from one trial site. […] PBMC from 8 patients were analyzed for p-S6RP/t-S6RP and all data was shown. […]

[6] = both, various breeds (5 mixed-breed and 17 purebred dogs), dog, in vivo, 15 days

CO[C@H]1C[C@@H]2CC[C@@H](C)[C@@](O)(O2)C(=O)C(=O)N2CCCC[C@H]2C(=O)O[C@H]([C@H](C)C[C@@H]2CC[C@@H](O)[C@H](OC)C2)CC(=O)[C@H](C)/C=C(\C)[C@@H](O)[C@@H](OC)C(=O)[C@H](C)C[C@H](C)/C=C/C=C/C=C/1C [rapamycin, Rapamycin]
rapamycin-mediated inhibition of p-S6RP (immunoblot) [1]: inhibition of p-S6RP
rapamycin-mediated inhibition of p-S6RP (immunoblot) [2]: inhibition of p-S6RP
anorexia, self-limiting non-dose limiting toxicity (grade 1,2), number of dogs [3, 6]: 2
diarrhea, self-limiting non-dose limiting toxicity (grade 1,2), number of dogs [3, 6]: 1
thrombocytopenia, self-limiting non-dose limiting toxicity (grade 1,2), number of dogs [3, 6]: 1
vomiting, self-limiting non-dose limiting toxicity (grade 1,2), number of dogs [3, 6]: 2
febrile episodes reported ([3]; dog, in vivo): two
immunosuppression and surgical incision healing delays ([3]; dog, in vivo): Neither immunosuppression nor surgical incision healing delays were reported
lymphopenia, post-operative infection rate, surgical incision healing delays ([3]; dog, in vivo): no evident lymphopenia, increased post-operative infection rate, nor surgical incision healing delays
neurological, respiratory, renal, or biochemical toxicities related to treatment ([3]; dog, in vivo): no clinically significant
tolerability of dose escalation ([3]; dog, in vivo): well tolerated
maximally tolerated dose (MTD) ([3]; escalation to 0.08 mg/kg IM daily, n = 19): not defined
PBMC p/t-S6RP inhibition ([4]; Day 8, maintained through Day 15, n = 8, p<0.0001): highly significant
dogs with PBMC phosphorylation of S6RP significantly inhibited ([4]; Day 8 after rapamycin therapy): 8/8
reduction of p/t-S6RP ([5]; BW and SK cells, rapamycin 100 nM for 4 hours vs untreated controls): approximately 50 ×
inhibition of down-stream targets of mTOR ([5]; canine osteosarcoma cell lines, western blot and ECL): inhibits down-stream targets of mTOR in a dose-dependent fashion
